Measured values as given in patent US20180078602A1, “METHODS AND COMPOSITIONS FOR EXTENDING THE EFFICACY OF PHOSPHODIESTERASE INHIBITORS FOR TREATING ERECTILE DYSFUNCTION, AND COMPOSITIONS FOR INHIBITING THE ONSET AND SLOWING THE PROGRESSION OF ERECTILE DYSFUNCTION” (K.L.R.M., LLC, priority 2015, published 2018).

Legend:
[1] = system: rat corpora cavernosa smooth muscle/collagen; assay: Masson trichrome staining, smooth muscle/collagen ratio by quantitative image analysis; type: in vivo; conditions: daily oral treatment 2 months; compared to 12 month-old control animals
Description: (§1) Middle aged 10 month-old Fisher 344 rats (Harlan Sprague-Dawley, San Diego, Calif.) were divided in 4 groups and treated daily for two months as follows: • a) Control: 12 month-old at the time of death receiving by retrolingual administration vehicle only composed of 10% dimethyl sulfoxide, peanut butter and water (12 month); • b) Composition 4 (COMP 4): a combination of Muira Puama (45 mg/Kg B.W), Paullinia cupana (45 mg/Kg B.W), ginger (45 mg/Kg B.W) and […]) dissolved in vehicle; • c) Tadalafil (TAD): 2.5 mg/Kg B.W tadalafil dissolved in vehicle; • d) Composition 4+Tadalafil (COMP4+TAD): A combination of b and c at the same doses. Histochemistry and Immunohistochemistry. […] Quantitative Image Analysis was performed by computerized densitometry using ImagePro 7.1 software (Media Cybernetics, Silver Spring, Md.), coupled to an Olympus BHS microscope equipped with a Retiga digital camera. For Masson staining, 40× magnification pictures of the penis comprising half of the corpora cavernosa were analyzed for smooth muscle (stained in red) and collagen areas (stained in blue) excluding the sinusoidal spaces, and expressed as the smooth muscle/collagen ratio. For desmin and iNOS staining, 200× magnification pictures of the corpora cavernosa were analyzed in a computerized grid and expressed as a percentage of positive area versus total area of the corpora cavernosa. […]

desmin = assay: Desmin immunohistochemistry (smooth muscle cell content); type: in vivo, rat; conditions: treatment 2 months; with respect to 12 month-old non-treated controls
Description: as §1

Which results are given for `CN1CC(=O)N2[C@H](c3ccc4c(c3)OCO4)c3[nH]c4ccccc4c3C[C@@H]2C1=O` [tadalafil]?
improvement of SMC/collagen ratio [1]: 60%; increase in desmin expression (desmin): 38%
